The subject of this test is BRCA1, Wee1, Chk1, γH2AX phosphorylation in SKOV-3 tumors. The experiment in a line: Ex-vivo western blot of intraperitoneal tumors. It is filed as in vivo, mouse. Particulars: LB100 alone 1.5 mg/kg, 4 h. The method, then: Whole cell and homogenized tumor tissues were lysed in NP-40 lysis buffer [50 mM Tris/HCl, pH 7.4, 150 mM NaCl and 1% Nonidet P40, supplemented with Complete Protrase Inhibitor Cocktail tablets and PhosStop phosphatase inhibitors (Roche, Indianapolis, Ind.)] and prepared as previously described (Madigan, J. P. et al. 2009). Protein (40 μg) was resolved on SDS/PAGE (12% or 15% gels) and transferred onto Immobilon PVDF membrane. The membrane was then blocked for 1 hour at room temperature in 5% (w/v) non-fat milk in TBS-Tween and probed overnight with primary antibodies. […]
Five- to seven-week-old female nude athymic mice (nu/nu) were obtained from NCI (Frederick, Md.), maintained in accredited animal facilities and used as stipulated by the U.S. Public Health Service Policy on Humane Care and Use of Laboratory Animals, in accordance with institutional reviews (http://oacu.odnih.gov). […] Tumor growth was measured twice a week via bioluminescence imaging (BLI) as previously described (Bakhsheshian, J. et al. 2013). […] Relative intensity of the BLI signal for each mouse was calculated by dividing the total luminescence for each session by the total luminescence measured on day 1 of treatment. […] Toxicity of the treatment regimens was assessed by the degree of weight loss and the overall health status was continuously monitored by a veterinarian on staff. […]

Regarding `CN1CCN(C(=O)C2C(C(=O)O)[C@H]3CC[C@@H]2O3)CC1` (stereo partly shown) [LB100], the “phosphorylation of BRCA1, Wee1, Chk1, γH2AX” value is reported as “induced hyperphosphorylation”.

Values taken from patent publication US20170136008A1, “OXABICYCLOHEPTANES AND OXABICYCLOHEPTENES FOR THE TREATMENT OF OVARIAN CANCER” (priority 2014, published 2017).
